In US12590126B2, “Compounds for selective disruption of protein-protein interactions” (SyntheX, Inc., priority 2017, dated 2026):
pIC50: −log10 of the molar value. Where a SMILES comes first, the peptide text is derived from it. Where no end group is shown, it is not given here. [ ]: non-standard residue; d: D form. The star is where a group is joined. C6_5FAM = 5-carboxyfluorescein (5FAM) label attached via a 6-carbon linker to the lysine epsilon amino group, O=C(NCCCCCC(=O)*)c1ccc2c(c1)C(=O)OC21c2ccc(O)cc2Oc2cc(O)ccc21; Dansyl = CN(C)c1cccc2c(S(=O)(=O)*)cccc12; 2Nal = N[C@@H](Cc1ccc2ccccc2c1)C(=O)O; dNle = CCCC[C@@H](N)C(=O)O; Sar = CNCC(=O)O

Each compound was assayed on SSP-25 cells (assay: xCELLigence cell death assay in SSP-25 cells (cellular assay for RAD51 inhibition)). Details: concentration gradient added at 20 hour mark, only values with R^>0.85 shown.
Assay type: cell-based
Description: The efficacy of the peptides described herein was assessed by their ability to cause death in SSP-25 cells, which have amplification of RAD51 and are dependent on its activity.
First, 5,000 SSP25 cells were plated, and adherence and growth was measured for 20 hours using live measurements of current impedance through the plate using the xCELLigence™ instrument. At the 20 hour mark, a concentration gradient of each compound or a PBS control was added to the SSP-25 cells, which were cultured in […] RMPI media with 10% FBS. […] Only values with confidence and R^>0.85 are shown.

| Compound | pIC50 |
| --- | --- |
| Ac-rrrrrraGphlrkvralrslGlrlaq-NH2 (Ac-[dR][dR][dR][dR][dR][dR][dA]G[dP][dH][dL][dR][dK][dV][dR][dA][dL][dR][dS][dL]G[dL][dR][dL][dA][dQ]-NH2; SMILES CC(=O)N[C@H](CCCNC(=N)N)C(=O)N[C@H](CCCNC(=N)N)C(=O)N[C@H](CCCNC(=N)N)C(=O)N[C@H](CCCNC(=N)N)C(=O)N[C@H](CCCNC(=N)N)C(=O)N[C@H](CCCNC(=N)N)C(=O)N[C@H](C)C(=O)NCC(=O)N1CCC[C@@H]1C(=O)N[C@H](Cc1c[nH]cn1)C(=O)N[C@H](CC(C)C)C(=O)N[C@H](CCCNC(=N)N)C(=O)N[C@H](CCCCN)C(=O)N[C@@H](C(=O)N[C@H](CCCNC(=N)N)C(=O)N[C@H](C)C(=O)N[C@H](CC(C)C)C(=O)N[C@H](CCCNC(=N)N)C(=O)N[C@H](CO)C(=O)N[C@H](CC(C)C)C(=O)NCC(=O)N[C@H](CC(C)C)C(=O)N[C@H](CCCNC(=N)N)C(=O)N[C@H](CC(C)C)C(=O)N[C@H](C)C(=O)N[C@H](CCC(N)=O)C(N)=O)C(C)C) [Compound 6] | 3.38 |
| Ac-l{d-norLeucine}rsrrlvrGlrkrrrrrGΦ-NH2 [Compound 14] | 2.46 |
| Ac-l{d-norLeucine}rGvrlrvGlrkrrrrrrr-NH2 (Ac-[dL][dNle][dR]G[dV][dR][dL][dR][dV]G[dL][dR][dK][dR][dR][dR][dR][dR][dR][dR]-NH2; SMILES CCCC[C@@H](NC(=O)[C@@H](CC(C)C)NC(C)=O)C(=O)N[C@H](CCCNC(=N)N)C(=O)NCC(=O)N[C@@H](C(=O)N[C@H](CCCNC(=N)N)C(=O)N[C@H](CC(C)C)C(=O)N[C@H](CCCNC(=N)N)C(=O)N[C@@H](C(=O)NCC(=O)N[C@H](CC(C)C)C(=O)N[C@H](CCCNC(=N)N)C(=O)N[C@H](CCCCN)C(=O)N[C@H](CCCNC(=N)N)C(=O)N[C@H](CCCNC(=N)N)C(=O)N[C@H](CCCNC(=N)N)C(=O)N[C@H](CCCNC(=N)N)C(=O)N[C@H](CCCNC(=N)N)C(=O)N[C@H](CCCNC(=N)N)C(=O)N[C@H](CCCNC(=N)N)C(N)=O)C(C)C)C(C)C) [Compound 10] | 4.89 |
| Ac-lmrsvrlrvGlrkaG: : : (cFΦR4) (Ac-[dL][dM][dR][dS][dV][dR][dL][dR][dV]G[dL][dR][dK][dA]GF[2Nal]RRRRQ; not fully specified (bridges); printed as Ac-lmrsvrlrvGlrkaG: : : (cFΦR4); also: core joined by ':::' to cyclo(FΦRRRRQ), junction not defined) [Compound 3] | 5.14 |
| Ac-l{d-norLeucine}rGvrlrvGlrkrrrrGy-NH2 (Ac-[dL][dNle][dR]G[dV][dR][dL][dR][dV]G[dL][dR][dK][dR][dR][dR][dR]G[dY]-NH2; SMILES CCCC[C@@H](NC(=O)[C@@H](CC(C)C)NC(C)=O)C(=O)N[C@H](CCCNC(=N)N)C(=O)NCC(=O)N[C@@H](C(=O)N[C@H](CCCNC(=N)N)C(=O)N[C@H](CC(C)C)C(=O)N[C@H](CCCNC(=N)N)C(=O)N[C@@H](C(=O)NCC(=O)N[C@H](CC(C)C)C(=O)N[C@H](CCCNC(=N)N)C(=O)N[C@H](CCCCN)C(=O)N[C@H](CCCNC(=N)N)C(=O)N[C@H](CCCNC(=N)N)C(=O)N[C@H](CCCNC(=N)N)C(=O)N[C@H](CCCNC(=N)N)C(=O)NCC(=O)N[C@H](Cc1ccc(O)cc1)C(N)=O)C(C)C)C(C)C) [Compound 11] | 5.05 |
| Ac-lmrsvrlrvGlrkrrrrrrrk(C6_5FAM)-NH2 (Ac-[dL][dM][dR][dS][dV][dR][dL][dR][dV]G[dL][dR][dK][dR][dR][dR][dR][dR][dR][dR][dK](C6_5FAM)-NH2; SMILES CSCC[C@@H](NC(=O)[C@@H](CC(C)C)NC(C)=O)C(=O)N[C@H](CCCNC(=N)N)C(=O)N[C@H](CO)C(=O)N[C@@H](C(=O)N[C@H](CCCNC(=N)N)C(=O)N[C@H](CC(C)C)C(=O)N[C@H](CCCNC(=N)N)C(=O)N[C@@H](C(=O)NCC(=O)N[C@H](CC(C)C)C(=O)N[C@H](CCCNC(=N)N)C(=O)N[C@H](CCCCN)C(=O)N[C@H](CCCNC(=N)N)C(=O)N[C@H](CCCNC(=N)N)C(=O)N[C@H](CCCNC(=N)N)C(=O)N[C@H](CCCNC(=N)N)C(=O)N[C@H](CCCNC(=N)N)C(=O)N[C@H](CCCNC(=N)N)C(=O)N[C@H](CCCNC(=N)N)C(=O)N[C@H](CCCCNC(=O)CCCCCNC(=O)c1ccc2c(c1)C(=O)OC21c2ccc(O)cc2Oc2cc(O)ccc21)C(N)=O)C(C)C)C(C)C) [Compound 13] | 5.00 |
| Ac-lmrsvrlrvGlrr-NH2 (Ac-[dL][dM][dR][dS][dV][dR][dL][dR][dV]G[dL][dR][dR]-NH2; SMILES CSCC[C@@H](NC(=O)[C@@H](CC(C)C)NC(C)=O)C(=O)N[C@H](CCCNC(=N)N)C(=O)N[C@H](CO)C(=O)N[C@@H](C(=O)N[C@H](CCCNC(=N)N)C(=O)N[C@H](CC(C)C)C(=O)N[C@H](CCCNC(=N)N)C(=O)N[C@@H](C(=O)NCC(=O)N[C@H](CC(C)C)C(=O)N[C@H](CCCNC(=N)N)C(=O)N[C@H](CCCNC(=N)N)C(N)=O)C(C)C)C(C)C) [Compound 4] | 4.17 |
| Ac-l{d-norLeucine}rsvrlrvGlrkrrrrrrr-NH2 (Ac-[dL][dNle][dR][dS][dV][dR][dL][dR][dV]G[dL][dR][dK][dR][dR][dR][dR][dR][dR][dR]-NH2; SMILES CCCC[C@@H](NC(=O)[C@@H](CC(C)C)NC(C)=O)C(=O)N[C@H](CCCNC(=N)N)C(=O)N[C@H](CO)C(=O)N[C@@H](C(=O)N[C@H](CCCNC(=N)N)C(=O)N[C@H](CC(C)C)C(=O)N[C@H](CCCNC(=N)N)C(=O)N[C@@H](C(=O)NCC(=O)N[C@H](CC(C)C)C(=O)N[C@H](CCCNC(=N)N)C(=O)N[C@H](CCCCN)C(=O)N[C@H](CCCNC(=N)N)C(=O)N[C@H](CCCNC(=N)N)C(=O)N[C@H](CCCNC(=N)N)C(=O)N[C@H](CCCNC(=N)N)C(=O)N[C@H](CCCNC(=N)N)C(=O)N[C@H](CCCNC(=N)N)C(=O)N[C@H](CCCNC(=N)N)C(N)=O)C(C)C)C(C)C) [Compound 9] | 4.70 |
| Ac-lvrsvGlrrrrrrrr-NH2 (Ac-[dL][dV][dR][dS][dV]G[dL][dR][dR][dR][dR][dR][dR][dR][dR]-NH2; SMILES CC(=O)N[C@H](CC(C)C)C(=O)N[C@@H](C(=O)N[C@H](CCCNC(=N)N)C(=O)N[C@H](CO)C(=O)N[C@@H](C(=O)NCC(=O)N[C@H](CC(C)C)C(=O)N[C@H](CCCNC(=N)N)C(=O)N[C@H](CCCNC(=N)N)C(=O)N[C@H](CCCNC(=N)N)C(=O)N[C@H](CCCNC(=N)N)C(=O)N[C@H](CCCNC(=N)N)C(=O)N[C@H](CCCNC(=N)N)C(=O)N[C@H](CCCNC(=N)N)C(=O)N[C@H](CCCNC(=N)N)C(N)=O)C(C)C)C(C)C) [Compound 5] | 4.46 |
| Ac-l{d-norLeucine}rsvrlr[d-norLeucine]GlrkrrrrrGΦ-NH2 (Ac-[dL][dNle][dR][dS][dV][dR][dL][dR][dNle]G[dL][dR][dK][dR][dR][dR][dR][dR]G[2Nal]-NH2; SMILES CCCC[C@@H](NC(=O)[C@@H](CCCNC(=N)N)NC(=O)[C@@H](CC(C)C)NC(=O)[C@@H](CCCNC(=N)N)NC(=O)[C@H](NC(=O)[C@@H](CO)NC(=O)[C@@H](CCCNC(=N)N)NC(=O)[C@@H](CCCC)NC(=O)[C@@H](CC(C)C)NC(C)=O)C(C)C)C(=O)NCC(=O)N[C@H](CC(C)C)C(=O)N[C@H](CCCNC(=N)N)C(=O)N[C@H](CCCCN)C(=O)N[C@H](CCCNC(=N)N)C(=O)N[C@H](CCCNC(=N)N)C(=O)N[C@H](CCCNC(=N)N)C(=O)N[C@H](CCCNC(=N)N)C(=O)N[C@H](CCCNC(=N)N)C(=O)NCC(=O)N[C@@H](Cc1ccc2ccccc2c1)C(N)=O) [Compound 16] | 4.37 |
| Ac-l{d-norLeucine}rGvrlrvGlrkrrrrrGΦ-NH2 (Ac-[dL][dNle][dR]G[dV][dR][dL][dR][dV]G[dL][dR][dK][dR][dR][dR][dR][dR]G[2Nal]-NH2; SMILES CCCC[C@@H](NC(=O)[C@@H](CC(C)C)NC(C)=O)C(=O)N[C@H](CCCNC(=N)N)C(=O)NCC(=O)N[C@@H](C(=O)N[C@H](CCCNC(=N)N)C(=O)N[C@H](CC(C)C)C(=O)N[C@H](CCCNC(=N)N)C(=O)N[C@@H](C(=O)NCC(=O)N[C@H](CC(C)C)C(=O)N[C@H](CCCNC(=N)N)C(=O)N[C@H](CCCCN)C(=O)N[C@H](CCCNC(=N)N)C(=O)N[C@H](CCCNC(=N)N)C(=O)N[C@H](CCCNC(=N)N)C(=O)N[C@H](CCCNC(=N)N)C(=O)N[C@H](CCCNC(=N)N)C(=O)NCC(=O)N[C@@H](Cc1ccc2ccccc2c1)C(N)=O)C(C)C)C(C)C) [Compound 12] | 4.77 |

These compounds were tested on fresh human RBCs (assay: not given). Details: red cells of human, 1 h, 250.
Assay type: cell-based
Description: To assess the nonspecific lytic properties of each compounds disclosed herein, each mentioned compound was tested for hemolytic properties against fresh human RBCs. Briefly, donor blood was drawn into a K2EDTA anticoagulant tube from multiple O+ donors. The blood was washed 3 times in PBS. RBCs were diluted to 2% in PBS and compounds were added at various concentrations. Samples were incubated at 37 C for 1 hr, then centrifuged at 2200 rpm for 5 min. Supernatants were measured for absorbance at 450 nm or 405 nm. The percentage hemolysis was calculated as lysis relative to 1% Triton X-100 incubation.

| Compound | % Hemolysis (250 uM) [%] |
| --- | --- |
| CCCC[C@@H](NC(=O)[C@@H](CC(C)C)NC(=O)CN(C)S(=O)(=O)c1cccc2c(N(C)C)cccc12)C(=O)N[C@H](CCCNC(=N)N)C(=O)N[C@H](CO)C(=O)N[C@@H](C(=O)N[C@H](CCCNC(=N)N)C(=O)N[C@H](CC(C)C)C(=O)N[C@H](CCCNC(=N)N)C(=O)N[C@@H](C(=O)NCC(=O)N[C@H](CC(C)C)C(=O)N[C@H](CCCNC(=N)N)C(=O)N[C@H](CCCCN)C(=O)N[C@H](CCCNC(=N)N)C(=O)N[C@H](CCCNC(=N)N)C(=O)N[C@H](CCCNC(=N)N)C(=O)N[C@H](CCCNC(=N)N)C(=O)N[C@H](CCCNC(=N)N)C(N)=O)C(C)C)C(C)C [Compound 19, DANSYL-Sarcosine-l{d-norLeucine}rsvrlrvGlrkrrrrr-NH2] (Dansyl-[Sar][dL][dNle][dR][dS][dV][dR][dL][dR][dV]G[dL][dR][dK][dR][dR][dR][dR][dR]-NH2) | 86 |
